Test results from PubChem BioAssay AID1919008 (Molecular Pharmacology Branch, DTP, NCI, 2023).

Tested on: DMS-114 complex spheroids with HUVEC/MSC, growth % test/control
Assay: Anticancer human tumor DMS-114 cell line growth inhibition [AhR];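 further: spheroids exposed to agents for 7 days before readout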;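 on viability, T/C: 100% = DMSO vehicle control wells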
Conditions: for IC50: curve of first compound; for viability, T/C: stronger effect = lower value
Method in brief: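 Spheroids combined tumor cells with HUVEC endothelial cells and human MSCs as stroma. AhR antagonists were paired with standard or investigational drugs, each dosed in half-log steps down from near clinical Cmax, or from 10 microM where Cmax was unknown.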

[1] = second compound 0.1 µM, first compound 0.00316 µM
[2] = second compound 0.1 µM, first compound 0.01 µM
[3] = second compound 0.1 µM, first compound 0.0316 µM
[4] = second compound 0.1 µM, first compound 0.1 µM
[5] = second compound 0.316 µM, first compound 0.00316 µM
[6] = second compound 0.316 µM, first compound 0.01 µM
[7] = second compound 0.316 µM, first compound 0.0316 µM
[8] = second compound 0.316 µM, first compound 0.1 µM
[9] = second compound 1 µM, first compound 0.00316 µM
[10] = second compound 1 µM, first compound 0.01 µM
[11] = second compound 1 µM, first compound 0.0316 µM
[12] = second compound 1 µM, first compound 0.1 µM
[13] = second compound 3.16 µM, first compound 0.00316 µM
[14] = second compound 3.16 µM, first compound 0.01 µM
[15] = second compound 3.16 µM, first compound 0.0316 µM
[16] = second compound 3.16 µM, first compound 0.1 µM
[17] = second compound 10 µM, first compound 0.00316 µM
[18] = second compound 10 µM, first compound 0.01 µM
[19] = second compound 10 µM, first compound 0.0316 µM
[20] = second compound 10 µM, first compound 0.1 µM
[21] = second compound 0.1 µM, first compound 0.316 µM
[22] = second compound 0.1 µM, first compound 1 µM
[23] = second compound 0.1 µM, first compound 3.16 µM
[24] = second compound 0.1 µM, first compound 10 µM
[25] = second compound 0.316 µM, first compound 0.316 µM
[26] = second compound 0.316 µM, first compound 1 µM
[27] = second compound 0.316 µM, first compound 3.16 µM
[28] = second compound 0.316 µM, first compound 10 µM
[29] = second compound 1 µM, first compound 0.316 µM
[30] = second compound 1 µM, first compound 1 µM
[31] = second compound 1 µM, first compound 3.16 µM
[32] = second compound 1 µM, first compound 10 µM
[33] = second compound 3.16 µM, first compound 0.316 µM
[34] = second compound 3.16 µM, first compound 1 µM
[35] = second compound 3.16 µM, first compound 3.16 µM
[36] = second compound 3.16 µM, first compound 10 µM
[37] = second compound 10 µM, first compound 0.316 µM
[38] = second compound 10 µM, first compound 1 µM
[39] = second compound 10 µM, first compound 3.16 µM
[40] = second compound 10 µM, first compound 10 µM

## CC[C@@]1(O)C(=O)OCc2c1cc1n(c2=O)Cc2cc3c(CN(C)C)c(O)ccc3nc2-1 + Cc1cncc(-c2nc(NCCc3c[nH]c4ccccc34)c3ncn(C(C)C)c3n2)c1
Second compound 0.1 µM
  IC50: 23.6 nM
Second compound 0.316 µM
  IC50: 23.2 nM
Second compound 1 µM
  IC50: 25.9 nM
Second compound 3.16 µM
  IC50: 21.9 nM
Second compound 10 µM
  IC50: < 0.316 nM
Second compound 0.1 µM, first compound 0.000316 µM
  viability, T/C: 93.4%
Second compound 0.1 µM, first compound 0.001 µM
  viability, T/C: 99.2%
[1]
  viability, T/C: 85.8%
[2]
  viability, T/C: 75.6%
[3]
  viability, T/C: 41.1%
[4]
  viability, T/C: 16.7%
Second compound 0.316 µM, first compound 0.000316 µM
  viability, T/C: 93.4%
Second compound 0.316 µM, first compound 0.001 µM
  viability, T/C: 101%
[5]
  viability, T/C: 83.8%
[6]
  viability, T/C: 83.2%
[7]
  viability, T/C: 37.8%
[8]
  viability, T/C: 17%
Second compound 1 µM, first compound 0.000316 µM
  viability, T/C: 97.3%
Second compound 1 µM, first compound 0.001 µM
  viability, T/C: 112%
[9]
  viability, T/C: 94.5%
[10]
  viability, T/C: 86%
[11]
  viability, T/C: 42.1%
[12]
  viability, T/C: 19.5%
Second compound 3.16 µM, first compound 0.000316 µM
  viability, T/C: 99.7%
Second compound 3.16 µM, first compound 0.001 µM
  viability, T/C: 94%
[13]
  viability, T/C: 96.1%
[14]
  viability, T/C: 71.9%
[15]
  viability, T/C: 39.8%
[16]
  viability, T/C: 17.8%
Second compound 10 µM, first compound 0.000316 µM
  viability, T/C: 40.1%
Second compound 10 µM, first compound 0.001 µM
  viability, T/C: 43.7%
[17]
  viability, T/C: 37.1%
[18]
  viability, T/C: 27.2%
[19]
  viability, T/C: 16.7%
[20]
  viability, T/C: 9.82%

## COc1cc(C2c3cc4c(cc3C(OC3OC5COC(C)OC5C(O)C3O)C3COC(=O)C23)OCO4)cc(OC)c1O (stereo not given) + Cc1cncc(-c2nc(NCCc3c[nH]c4ccccc34)c3ncn(C(C)C)c3n2)c1
Second compound 0.1 µM
  IC50: 448 nM
Second compound 0.316 µM
  IC50: 351 nM
Second compound 1 µM
  IC50: 390 nM
Second compound 3.16 µM
  IC50: 298 nM
Second compound 10 µM
  IC50: < 31.6 nM
[3]
  viability, T/C: 102%
[4]
  viability, T/C: 97.8%
[21]
  viability, T/C: 58.1%
[22]
  viability, T/C: 27%
[23]
  viability, T/C: 16.5%
[24]
  viability, T/C: 8.1%
[7]
  viability, T/C: 96.4%
[8]
  viability, T/C: 96.3%
[25]
  viability, T/C: 50.4%
[26]
  viability, T/C: 24.9%
[27]
  viability, T/C: 16.3%
[28]
  viability, T/C: 9.46%
[11]
  viability, T/C: 92.7%
[12]
  viability, T/C: 94.6%
[29]
  viability, T/C: 54.6%
[30]
  viability, T/C: 23.5%
[31]
  viability, T/C: 17.6%
[32]
  viability, T/C: 9.48%
[15]
  viability, T/C: 87.1%
[16]
  viability, T/C: 93.3%
[33]
  viability, T/C: 47.5%
[34]
  viability, T/C: 21.9%
[35]
  viability, T/C: 15.7%
[36]
  viability, T/C: 8.67%
[19]
  viability, T/C: 42.3%
[20]
  viability, T/C: 41.6%
[37]
  viability, T/C: 21.7%
[38]
  viability, T/C: 10.2%
[39]
  viability, T/C: 8.09%
[40]
  viability, T/C: 5.18%

## COc1cccc2c1C(=O)c1c(O)c3c(c(O)c1C2=O)CC(O)(C(=O)CO)CC3OC1CC(N)C(O)C(C)O1 (stereo not given) + Cc1cncc(-c2nc(NCCc3c[nH]c4ccccc34)c3ncn(C(C)C)c3n2)c1
Second compound 0.1 µM
  IC50: < 31.6 nM
Second compound 0.316 µM
  IC50: < 31.6 nM
Second compound 1 µM
  IC50: < 31.6 nM
Second compound 3.16 µM
  IC50: < 31.6 nM
Second compound 10 µM
  IC50: < 31.6 nM
[3]
  viability, T/C: 28.3%
[4]
  viability, T/C: 17.7%
[21]
  viability, T/C: 5%
[22]
  viability, T/C: 0.93%
[23]
  viability, T/C: 0.14%
[24]
  viability, T/C: 0.22%
[7]
  viability, T/C: 26.7%
[8]
  viability, T/C: 16.3%
[25]
  viability, T/C: 4.84%
[26]
  viability, T/C: 0.28%
[27]
  viability, T/C: 0.12%
[28]
  viability, T/C: 0.18%
[11]
  viability, T/C: 27.6%
[12]
  viability, T/C: 15%
[29]
  viability, T/C: 4.86%
[30]
  viability, T/C: 0.26%
[31]
  viability, T/C: 0.16%
[32]
  viability, T/C: 0.25%
[15]
  viability, T/C: 21.4%
[16]
  viability, T/C: 15.9%
[33]
  viability, T/C: 4.37%
[34]
  viability, T/C: 0.22%
[35]
  viability, T/C: 0.16%
[36]
  viability, T/C: 0.28%
[19]
  viability, T/C: 8.93%
[20]
  viability, T/C: 5.47%
[37]
  viability, T/C: 3.18%
[38]
  viability, T/C: 0.37%
[39]
  viability, T/C: 0.16%
[40]
  viability, T/C: 0.24%

## Nc1ccn(C2OC(CO)C(O)C2(F)F)c(=O)n1 (stereo not given) + Cc1cncc(-c2nc(NCCc3c[nH]c4ccccc34)c3ncn(C(C)C)c3n2)c1
Second compound 0.1 µM
  IC50: < 31.6 nM
Second compound 0.316 µM
  IC50: < 31.6 nM
Second compound 1 µM
  IC50: < 31.6 nM
Second compound 3.16 µM
  IC50: < 31.6 nM
Second compound 10 µM
  IC50: < 31.6 nM
[3]
  viability, T/C: 8.56%
[4]
  viability, T/C: 9.8%
[21]
  viability, T/C: 9.67%
[22]
  viability, T/C: 7.95%
[23]
  viability, T/C: 10.1%
[24]
  viability, T/C: 8.44%
[7]
  viability, T/C: 8.17%
[8]
  viability, T/C: 8.73%
[25]
  viability, T/C: 9.32%
[26]
  viability, T/C: 9.26%
[27]
  viability, T/C: 8.71%
[28]
  viability, T/C: 9.3%
[11]
  viability, T/C: 9.4%
[12]
  viability, T/C: 10.1%
[29]
  viability, T/C: 8.34%
[30]
  viability, T/C: 9.34%
[31]
  viability, T/C: 8.86%
[32]
  viability, T/C: 9.03%
[15]
  viability, T/C: 8.74%
[16]
  viability, T/C: 10.6%
[33]
  viability, T/C: 11.1%
[34]
  viability, T/C: 8.92%
[35]
  viability, T/C: 9.63%
[36]
  viability, T/C: 8.89%
[19]
  viability, T/C: 9.18%
[20]
  viability, T/C: 7.73%
[37]
  viability, T/C: 8.82%
[38]
  viability, T/C: 7.58%
[39]
  viability, T/C: 8.49%
[40]
  viability, T/C: 9.08%

## Nc1ncn(C2CC(O)C(CO)O2)c(=O)n1 (stereo not given) + Cc1cncc(-c2nc(NCCc3c[nH]c4ccccc34)c3ncn(C(C)C)c3n2)c1
Second compound 0.1 µM
  IC50: > 1000 nM
Second compound 0.316 µM
  IC50: > 1000 nM
Second compound 1 µM
  IC50: > 1000 nM
Second compound 3.16 µM
  IC50: > 1000 nM
Second compound 10 µM
  IC50: < 3.16 nM
[1]
  viability, T/C: 111%
[2]
  viability, T/C: 88.5%
[3]
  viability, T/C: 99.5%
[4]
  viability, T/C: 101%
[21]
  viability, T/C: 77%
[22]
  viability, T/C: 54.8%
[5]
  viability, T/C: 90.4%
[6]
  viability, T/C: 93.1%
[7]
  viability, T/C: 90.6%
[8]
  viability, T/C: 88%
[25]
  viability, T/C: 74.3%
[26]
  viability, T/C: 52.3%
[9]
  viability, T/C: 97.8%
[10]
  viability, T/C: 91.7%
[11]
  viability, T/C: 81.5%
[12]
  viability, T/C: 94.3%
[29]
  viability, T/C: 86.4%
[30]
  viability, T/C: 62%
[13]
  viability, T/C: 82.9%
[14]
  viability, T/C: 86.5%
[15]
  viability, T/C: 86.5%
[16]
  viability, T/C: 81.7%
[33]
  viability, T/C: 85.2%
[34]
  viability, T/C: 68.8%
[17]
  viability, T/C: 31.6%
[18]
  viability, T/C: 36.9%
[19]
  viability, T/C: 44.8%
[20]
  viability, T/C: 45.5%
[37]
  viability, T/C: 35.6%
[38]
  viability, T/C: 37.1%
